# Reference: patent publication US20110195845A1, “Constructs for Expressing Herbicide Tolerance Genes, Related Plants, and Related Trait Combinations” (Dow AgroSciences LLC, priority 2008, published 2011)
# Tests used:
# [1] = test system: Escherichia coli BL21-Star (DE3) expressing PAT (v3); assay: Complementation of cell growth on glufosinate, pDAB4434 (PAT v3); assay type: cell-based; parameters: key: −− = No Growth; +++ = Distinct Colony Growth; conditions: 24 hrs @28 C, 20 uM IPTG
# Text: A pET28a(+) expression plasmid containing PAT (v3) was constructed as a positive control. PAT (v3) was cloned as an NcoI-SacI fragment into corresponding restriction sites of pDAB779. Positive clones containing the PAT (v3) gene fragment were verified via restriction enzyme digestion. This construct was labeled as pDAB4434.
# The plasmids, pDAB4434, pDAB4412, and an empty pET vector (control) were transformed into Escherichia coli BL21-Star (DE3) bacterial cells. Expression cultures were initiated with 10-200 freshly transformed colonies into 250 mL LB medium containing 50 μg/ml antibiotic and 75 μM IPTG (isopropyl-[…]). The cultures were grown at 28° C. for 24 hours at 180-200 rpm. Five microliters of the culture was inoculated onto a complex media control and minimal media containing incrementally increasing concentrations of glufosinate and 20 μM IPTG. The cultures were dispersed evenly over the plates and incubated at 28° C. for 24 hours.
# [2] = test system: Escherichia coli BL21-Star (DE3) with CsVMV promoter//DSM-2 (3264); assay: Viral promoter driven complementation on glufosinate, plasmid 3264; assay type: cell-based; conditions: for bacterial growth on minimal media: 48 hrs @37 C; on bacterial growth on minimal media: key: ++++ = Heavy Lawn Growth; +++ = Lawn Growth; ++ = Lots of Distinct Colonies; + = Scattered Colony Growth
# Procedure: Plasmid constructs in which the DSM-2 (v2) and PAT gene coding sequences were expressed, under either the viral promoters CsVMV or the plant promoter AtUbi10, were assayed for complementation on minimal media containing glufosinate. The plasmids 3778 (Rb7 MARv3//AtUbi10 promoter//DSM-2 (v2)//Atu Orf 1 3′UTR), 3779 (Rb7 MARv3//AtUbi10 promoter//PAT//Atu Orf 1 3′UTR), 3264 (CsVMV promoter//DSM-2//Atu Orf 24 3′UTR), 3037 (CsVMV promoter//PAT//Atu Orf 25/26 3′UTR), and 770 (control plasmid containing CsVMV promoter//GUS v3//Atu Orf 24 3′UTR) were transformed into Escherichia coli BL21-Star (DE3) and grown up in complex media. Five microliters of the cultures were plated on minimal media containing increasing concentrations of Glufosinate and incubated at 37° C. for 48 hours.
# [3] = test system: DSM-2 v2 (pDAS1941) T2 corn; assay: T2 corn response to glufosinate applied postemergence; assay type: in vivo; conditions: for % Injury Ave / individuals with % Injury 20-40% / individuals with % Injury <20% / individuals with % Injury >40%: 14DAT
# Text: (§1) The seed from the cross of T1 DSM-2 (v2)×5× H751 were planted into 4-inch pots containing Metro Mix media and at 2 leaf stage were sprayed in the track sprayer set to 187 L/ha at 560 g ai/ha glufosinate to remove nulls. At 7 DAT nulls were removed and resistant plants were sprayed in the track sprayer as above at the following rates: 0, 560, 1120, 2240, and 4480 g ai/ha glufosinate. Plants were graded at 3 and 14 DAT and compared to 5× H751× Hi II control plants.
# PAT (pDAS1942) corn = assay: as above; assay type: in vivo; conditions: 14DAT
# Text: as §1
# [4] = test system: NT-1 tobacco suspension cells treated with DSM-2 (v2) (pDAB3778); assay: NT-1 tobacco cell transformation, selection on bialaphos or glufosinate ammonium; assay type: cell-based
# Procedure: Four days prior to transformation, a 1 week old NT-1 tobacco suspension, which was being subcultured every 7 days, was subcultured to fresh medium by adding 2 ml of the NT-1 culture or 1 ml of packed cells into 40 ml NT-1 B media. The subcultured suspension was maintained in the dark at 25±1° C. on a shaker at 125 rpm.
# A 50% glycerol stock of Agrobacterium tumefaciens [strain LBA4404] harboring a binary vector of interest was used to initiate a liquid overnight culture by adding 20, 100, or 500 μl to 30 ml YEP liquid (10 g/L yeast extract, 10 g/L Peptone, 5 g/L NaCl, 0-10 g/L Sucrose) containing 50-100 mg/L spectinomycin. The bacterial culture was incubated in the dark at 28° C. in an incubator shaker at 150-250 rpm until the OD600 was 1.5+0.2. This took approximately 18-20 hrs.
# For each vector tested, 20-70 mL of 4-day old suspension cells were transferred into a sterile vessel, to which 500-1750 μl of Agrobacterium suspension at the proper OD was added. To ensure a uniform mixture was achieved, the cells were pipetted up and down 5 times with a 10 ml wide-bore pipet. The uniform suspension was then drawn up into a 25 ml barrel of a repeat pipetter and 250 μl of the suspension was dispensed per well into 24-well plates, continuing until the suspension was exhausted. The well plates were wrapped in parafilm and cultured in the dark at 25±1° C. without shaking for a 3 day co-cultivation.
# Following the co-cultivation, all excess liquid was removed from the individual wells with a 1 mL pipet tip, and remaining cells were resuspended in 1 ml NTC liquid (NT-1 B medium containing 500 mg/L carbenicillin, added after autoclaving). The contents of an individual well were dispersed across the entire surface of 100×25 mm selection plates using disposable transfer pipets. Selection media consisted of NTC media solidified with 8 g/l TC agar supplemented with 7.5 to 15 mg/L bialaphos or technical grade glufosinate ammonium, added after autoclaving. All selection plates, left unwrapped, were maintained in the dark at 28° C.
# Putative transformants appeared as small clusters of callus on a background of dead, non-transformed cells. Calli were isolated approximately 2-6 weeks post-transformation. Each callus isolate was transferred to its own 60×20 mm plate containing the same selection medium and allowed to grow for approximately 2 weeks before being submitted for analysis.
# [5] = 560 g ai/ha glufosinate postemergence
# [6] = 1120 g ai/ha glufosinate postemergence
# [7] = 2240 g ai/ha glufosinate postemergence
# [8] = 4480 g ai/ha glufosinate postemergence
compound,measurement,setting,value
CP(=O)(O)CCC(N)C(=O)O (stereo not shown) [glufosinate],bacterial growth on minimal media,[1]; 250 μg/ml BASTA,+++
same,bacterial growth on minimal media,[1]; 500 μg/ml BASTA,+++
same,bacterial growth on minimal media,[1]; 1000 μg/ml BASTA,+++
same,bacterial growth on minimal media,[1]; 2000 μg/ml BASTA,+++
same,bacterial growth on minimal media,[1]; 4000 μg/ml BASTA,+++
same,bacterial growth on minimal media,[2]; 250 μg/ml BASTA,++
same,bacterial growth on minimal media,[2]; 500 μg/ml BASTA,+
same,concentration in minimal media to which promoter-driven DSM-2 provided resistance,"[2]; CsVMV promoter, minimal media",200 µg/mL
same,% Injury Ave,[3]; [5],6%
same,individuals with % Injury 20-40%,[3]; [5],0
same,individuals with % Injury <20%,[3]; [5],4
same,individuals with % Injury >40%,[3]; [5],0
same,% Injury Ave,[3]; [6],18%
same,individuals with % Injury 20-40%,[3]; [6],2
same,individuals with % Injury <20%,[3]; [6],2
same,individuals with % Injury >40%,[3]; [6],0
same,% Injury Ave,[3]; [7],21%
same,individuals with % Injury 20-40%,[3]; [7],3
same,individuals with % Injury <20%,[3]; [7],1
same,individuals with % Injury >40%,[3]; [7],0
same,% Injury Ave,[3]; [8],29%
same,individuals with % Injury 20-40%,[3]; [8],4
same,individuals with % Injury <20%,[3]; [8],0
same,individuals with % Injury >40%,[3]; [8],0
same,injury of individual plants,[3]; up to 2240 g ai/ha glufosinate,less than 20%
same,individuals with % Injury 20-40%,PAT (pDAS1942) corn; [5],0
same,individuals with % Injury >40%,PAT (pDAS1942) corn; [5],0
same,% Injury Ave,PAT (pDAS1942) corn; [6],25%
same,individuals with % Injury 20-40%,PAT (pDAS1942) corn; [6],1
same,individuals with % Injury <20%,PAT (pDAS1942) corn; [6],0
same,% Injury Ave,PAT (pDAS1942) corn; [8],33%
same,individuals with % Injury 20-40%,PAT (pDAS1942) corn; [8],3
same,individuals with % Injury >40%,PAT (pDAS1942) corn; [8],1
same,Transformation frequency (% of selection plates producing at least one callus) after coding region PCR,[4]; 7.5 mg/L selection agent,55.6%
same,Transformation frequency (% of selection plates producing at least one callus) after coding region PCR,[4]; 10 mg/L selection agent,50.0%
same,Transformation frequency (% of selection plates producing at least one callus) after coding region PCR,[4]; 12.5 mg/L selection agent,44.4%
same,Transformation frequency (% of selection plates producing at least one callus) after coding region PCR,[4]; 15 mg/L selection agent,38.9%
